Publication PMC9856672, “SGC-CAMKK2-1: A Chemical Probe for CAMKK2” (Cells, 2023)

How the values were obtained:
TAOK2 = molecular target: T1, TAOK2 (Homo sapiens, UniProt Q9UL54); experiment: KINOMEscan at 1 μM, TAOK2; assay type: binding; conditions: 1000 nM, read-out: Percent Control
T1 construct: purchased Eurofins DiscoverX KINOMEscan
Excerpt: (§1) Supplement cells-12-00287-s001.zip/File S2. KinomeScan data for the CAMKK2 probe and negative control.xlsx, sheet "SGC-CAMKK2-1N" | column: Percent Control

GRK1 = molecular target: T2, GRK1 (Homo sapiens, UniProt Q15835); experiment: KINOMEscan at 1 μM, GRK1; assay type: binding; conditions: 1000 nM, read-out: Percent Control
T2 construct: purchased Eurofins DiscoverX KINOMEscan
Excerpt: as §1

CDK11 = molecular target: T3, CDK11 (Homo sapiens, UniProt Q9BWU1); experiment: KINOMEscan at 1 μM, CDK11; assay type: binding; conditions: 1000 nM, read-out: Percent Control
T3 construct: purchased Eurofins DiscoverX KINOMEscan
T3 sequence (Q9BWU1 whole entry): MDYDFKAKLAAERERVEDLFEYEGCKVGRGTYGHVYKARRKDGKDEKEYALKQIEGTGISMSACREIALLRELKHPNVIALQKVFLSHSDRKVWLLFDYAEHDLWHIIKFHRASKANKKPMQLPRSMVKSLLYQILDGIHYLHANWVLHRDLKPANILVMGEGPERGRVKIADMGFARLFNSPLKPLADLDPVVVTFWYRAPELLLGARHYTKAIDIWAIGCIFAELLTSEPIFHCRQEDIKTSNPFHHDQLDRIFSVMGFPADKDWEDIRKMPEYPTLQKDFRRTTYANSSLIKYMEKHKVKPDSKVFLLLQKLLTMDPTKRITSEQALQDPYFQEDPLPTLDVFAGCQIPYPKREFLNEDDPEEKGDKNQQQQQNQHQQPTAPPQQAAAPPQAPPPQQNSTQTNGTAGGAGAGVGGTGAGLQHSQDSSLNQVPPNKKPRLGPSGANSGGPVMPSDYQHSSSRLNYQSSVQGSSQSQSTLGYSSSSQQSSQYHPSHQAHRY
Excerpt: as §1

NEK11 = molecular target: T4, NEK11 (Homo sapiens, UniProt Q8NG66); experiment: KINOMEscan at 1 μM, NEK11; assay type: binding; conditions: 1000 nM, read-out: Percent Control
T4 construct: purchased Eurofins DiscoverX KINOMEscan
Excerpt: as §1

[1] = molecular target: T5, TYK2(JH2domain-pseudokinase) (Homo sapiens, UniProt P29597); experiment: KINOMEscan at 1 μM, TYK2(JH2domain-pseudokinase); assay type: binding; conditions: 1000 nM, read-out: Percent Control
T5 construct: TYK2(JH2domain-pseudokinase); purchased Eurofins DiscoverX KINOMEscan
Excerpt: as §1

MAK = molecular target: T6, MAK (Homo sapiens, UniProt P20794); experiment: KINOMEscan at 1 μM, MAK; assay type: binding; conditions: 1000 nM, read-out: Percent Control
T6 construct: purchased Eurofins DiscoverX KINOMEscan
Excerpt: as §1

MLK2 = molecular target: T7, MLK2 (Homo sapiens, UniProt Q02779); experiment: KINOMEscan binding assay at 1 μM, MLK2; conditions: Compound Concentration 1000 nM; read-out: Percent Control
T7 construct: purchased Eurofins DiscoverX KINOMEscan
Excerpt: as §1

[2] = molecular target: T8, ABL1(Q252H)-phosphorylated (Homo sapiens, UniProt P00519, Q252H); experiment: KINOMEscan at 1 μM, ABL1(Q252H)-phosphorylated; assay type: binding; conditions: 1000 nM, read-out: Percent Control
T8 construct: purchased Eurofins DiscoverX KINOMEscan
Excerpt: as §1

ERK1 = molecular target: T9, ERK1 (Homo sapiens, UniProt P27361); experiment: KINOMEscan at 1 μM, ERK1; assay type: binding; conditions: 1000 nM, read-out: Percent Control
T9 construct: purchased Eurofins DiscoverX KINOMEscan
Excerpt: as §1

ACVR2A = molecular target: T10, ACVR2A (Homo sapiens, UniProt P27037); experiment: KINOMEscan at 1 μM, ACVR2A; assay type: binding; conditions: 1000 nM, read-out: Percent Control
T10 construct: purchased Eurofins DiscoverX KINOMEscan
T10 sequence (P27037 20-513): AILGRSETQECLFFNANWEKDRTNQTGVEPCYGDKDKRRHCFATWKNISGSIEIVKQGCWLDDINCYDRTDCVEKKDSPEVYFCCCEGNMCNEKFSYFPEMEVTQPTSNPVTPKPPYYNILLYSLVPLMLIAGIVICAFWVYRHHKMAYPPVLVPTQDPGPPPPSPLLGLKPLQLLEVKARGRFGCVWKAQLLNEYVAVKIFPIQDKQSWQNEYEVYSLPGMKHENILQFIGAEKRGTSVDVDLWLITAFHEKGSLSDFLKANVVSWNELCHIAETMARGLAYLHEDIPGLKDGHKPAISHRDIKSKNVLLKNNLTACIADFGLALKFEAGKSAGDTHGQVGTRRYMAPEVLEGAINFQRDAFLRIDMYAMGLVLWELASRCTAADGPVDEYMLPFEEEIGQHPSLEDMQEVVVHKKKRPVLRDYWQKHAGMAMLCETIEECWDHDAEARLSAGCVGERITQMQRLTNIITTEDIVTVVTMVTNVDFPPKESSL
Excerpt: as §1

MST2 = molecular target: T11, MST2 (Homo sapiens, UniProt Q13188); experiment: KINOMEscan at 1 μM, MST2; assay type: binding; conditions: 1000 nM, read-out: Percent Control
T11 construct: purchased Eurofins DiscoverX KINOMEscan
Excerpt: as §1

NEK5 = molecular target: T12, NEK5 (Homo sapiens, UniProt Q6P3R8); experiment: KINOMEscan at 1 μM, NEK5; assay type: binding; conditions: 1000 nM, read-out: Percent Control
T12 construct: purchased Eurofins DiscoverX KINOMEscan
Excerpt: as §1

WNK2 = molecular target: T13, WNK2 (Homo sapiens, UniProt Q9Y3S1); experiment: KINOMEscan at 1 μM, WNK2; assay type: binding; conditions: 1000 nM, read-out: Percent Control
T13 construct: purchased Eurofins DiscoverX KINOMEscan
Excerpt: as §1

EPHB4 = molecular target: T14, EPHB4 (Homo sapiens, UniProt P54760); experiment: KINOMEscan at 1 μM, EPHB4; assay type: binding; conditions: 1000 nM, read-out: Percent Control
T14 construct: purchased Eurofins DiscoverX KINOMEscan
Excerpt: as §1

KIT(D816H) = molecular target: T15, KIT(D816H) (Homo sapiens, UniProt P10721, D816H); experiment: KINOMEscan at 1 μM, KIT(D816H); assay type: binding; conditions: 1000 nM, read-out: Percent Control
T15 construct: purchased Eurofins DiscoverX KINOMEscan
Excerpt: as §1

PFCDPK1(P.falciparum) = molecular target: T16, PFCDPK1(P.falciparum) (Plasmodium falciparum, UniProt P62344); experiment: DiscoverX KINOMEscan binding assay at 1 μM, PFCDPK1(P.falciparum); conditions: PFCDPK1(P.falciparum) (CDPK1); Compound Concentration 1000 nM; read-out: Percent Control
T16 construct: purchased Eurofins DiscoverX KINOMEscan
Excerpt: (§2) Supplement cells-12-00287-s001.zip/File S2. KinomeScan data for the CAMKK2 probe and negative control.xlsx, sheet "SGC-CAMKK2-1" | column: Percent Control

BIKE = molecular target: T17, BIKE (Homo sapiens, UniProt Q9NSY1); experiment: KINOMEscan 1 μM, BIKE; assay type: binding; conditions: 1000 nM; Entrez BMP2K; read-out: Percent Control
T17 construct: purchased Eurofins DiscoverX KINOMEscan
Excerpt: as §2

MTOR = molecular target: T18, MTOR (Homo sapiens, UniProt P42345); experiment: KINOMEscan 1 μM, MTOR; assay type: binding; conditions: 1000 nM; Entrez MTOR; read-out: Percent Control
T18 construct: purchased Eurofins DiscoverX KINOMEscan
Excerpt: as §2

PAK6 = molecular target: T19, PAK6 (Homo sapiens, UniProt Q9NQU5); experiment: KINOMEscan 1 μM, PAK6; assay type: binding; conditions: 1000 nM; Entrez PAK6; read-out: Percent Control
T19 construct: purchased Eurofins DiscoverX KINOMEscan
Excerpt: as §2

PLK1 = molecular target: T20, PLK1 (Homo sapiens, UniProt P53350); experiment: DiscoverX KINOMEscan binding assay at 1 μM, PLK1; conditions: Compound Concentration 1000 nM, read-out: Percent Control
T20 construct: purchased Eurofins DiscoverX KINOMEscan
Excerpt: as §2

SRC = molecular target: T21, SRC (Homo sapiens, UniProt P12931); experiment: KINOMEscan 1 μM, SRC; assay type: binding; conditions: 1000 nM; Entrez SRC; read-out: Percent Control
T21 construct: purchased Eurofins DiscoverX KINOMEscan
T21 sequence (P12931 whole entry): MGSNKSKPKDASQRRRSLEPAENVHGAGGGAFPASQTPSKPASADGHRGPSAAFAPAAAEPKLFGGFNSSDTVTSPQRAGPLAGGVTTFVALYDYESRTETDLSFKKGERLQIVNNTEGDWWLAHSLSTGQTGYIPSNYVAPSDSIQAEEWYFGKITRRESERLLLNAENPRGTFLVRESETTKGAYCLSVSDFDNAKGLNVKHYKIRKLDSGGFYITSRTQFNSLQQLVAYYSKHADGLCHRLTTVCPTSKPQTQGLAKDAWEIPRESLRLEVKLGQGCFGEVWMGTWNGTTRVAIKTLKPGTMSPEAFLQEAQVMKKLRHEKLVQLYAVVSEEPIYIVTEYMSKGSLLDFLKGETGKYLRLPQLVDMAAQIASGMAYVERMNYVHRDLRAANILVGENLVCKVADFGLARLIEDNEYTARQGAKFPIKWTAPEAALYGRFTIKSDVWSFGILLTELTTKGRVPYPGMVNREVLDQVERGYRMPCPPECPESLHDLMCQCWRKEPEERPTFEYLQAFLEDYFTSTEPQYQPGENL
Excerpt: as §2

DCAMKL2 = molecular target: T22, DCAMKL2 (Homo sapiens, UniProt Q8N568); experiment: KINOMEscan 1 μM, DCAMKL2; assay type: binding; conditions: 1000 nM; Entrez DCLK2; read-out: Percent Control
T22 construct: purchased Eurofins DiscoverX KINOMEscan
T22 sequence (Q8N568 whole entry): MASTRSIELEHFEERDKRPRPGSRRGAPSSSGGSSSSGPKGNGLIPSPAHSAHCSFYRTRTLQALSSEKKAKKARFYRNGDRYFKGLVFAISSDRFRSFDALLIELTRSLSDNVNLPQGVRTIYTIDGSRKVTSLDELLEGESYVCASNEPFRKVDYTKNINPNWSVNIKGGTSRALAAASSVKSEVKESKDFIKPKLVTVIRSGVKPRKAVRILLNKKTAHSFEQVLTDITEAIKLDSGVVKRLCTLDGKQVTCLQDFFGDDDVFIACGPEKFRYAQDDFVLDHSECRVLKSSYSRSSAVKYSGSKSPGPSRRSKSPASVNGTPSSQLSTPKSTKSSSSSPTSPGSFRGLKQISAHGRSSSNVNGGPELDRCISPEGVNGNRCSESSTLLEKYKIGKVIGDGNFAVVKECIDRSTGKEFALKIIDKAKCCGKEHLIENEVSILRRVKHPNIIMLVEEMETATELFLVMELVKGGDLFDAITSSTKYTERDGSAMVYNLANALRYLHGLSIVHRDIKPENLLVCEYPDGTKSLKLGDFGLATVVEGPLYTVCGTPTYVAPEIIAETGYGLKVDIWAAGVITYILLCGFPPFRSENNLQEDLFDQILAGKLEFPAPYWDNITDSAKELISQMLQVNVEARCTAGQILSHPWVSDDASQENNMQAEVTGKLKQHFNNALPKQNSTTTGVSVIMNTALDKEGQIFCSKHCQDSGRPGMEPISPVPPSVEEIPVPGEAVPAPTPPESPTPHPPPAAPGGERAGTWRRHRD
Excerpt: as §2

TEC = molecular target: T23, TEC (Homo sapiens, UniProt P42680); experiment: KINOMEscan 1 μM, TEC; assay type: binding; conditions: 1000 nM; Entrez TEC; read-out: Percent Control
T23 construct: purchased Eurofins DiscoverX KINOMEscan
Excerpt: as §2

CAMK2B = molecular target: T24, CAMK2B (Homo sapiens, UniProt Q13554); experiment: KINOMEscan 1 μM, CAMK2B; assay type: binding; conditions: 1000 nM; Entrez CAMK2B; read-out: Percent Control
T24 construct: purchased Eurofins DiscoverX KINOMEscan
Excerpt: as §2

BRAF(V600E) = molecular target: T25, BRAF(V600E) (Homo sapiens, UniProt P15056, V600E); experiment: KINOMEscan 1 μM, BRAF(V600E); assay type: binding; conditions: 1000 nM; Entrez BRAF; read-out: Percent Control
T25 construct: purchased Eurofins DiscoverX KINOMEscan
Excerpt: as §2

WEE1 = molecular target: T26, WEE1 (Homo sapiens, UniProt P30291); experiment: KINOMEscan 1 μM, WEE1; assay type: binding; conditions: 1000 nM; Entrez WEE1; read-out: Percent Control
T26 construct: purchased Eurofins DiscoverX KINOMEscan
Excerpt: as §2

PRKD3 = molecular target: T27, PRKD3 (Homo sapiens, UniProt O94806); experiment: KINOMEscan 1 μM, PRKD3; assay type: binding; conditions: 1000 nM; Entrez PRKD3; read-out: Percent Control
T27 construct: purchased Eurofins DiscoverX KINOMEscan
Excerpt: as §2

EPHA2 = molecular target: T28, EPHA2 (Homo sapiens, UniProt P29317); experiment: KINOMEscan 1 μM, EPHA2; assay type: binding; conditions: 1000 nM; Entrez EPHA2; read-out: Percent Control
T28 construct: purchased Eurofins DiscoverX KINOMEscan
T28 sequence (P29317 24-976): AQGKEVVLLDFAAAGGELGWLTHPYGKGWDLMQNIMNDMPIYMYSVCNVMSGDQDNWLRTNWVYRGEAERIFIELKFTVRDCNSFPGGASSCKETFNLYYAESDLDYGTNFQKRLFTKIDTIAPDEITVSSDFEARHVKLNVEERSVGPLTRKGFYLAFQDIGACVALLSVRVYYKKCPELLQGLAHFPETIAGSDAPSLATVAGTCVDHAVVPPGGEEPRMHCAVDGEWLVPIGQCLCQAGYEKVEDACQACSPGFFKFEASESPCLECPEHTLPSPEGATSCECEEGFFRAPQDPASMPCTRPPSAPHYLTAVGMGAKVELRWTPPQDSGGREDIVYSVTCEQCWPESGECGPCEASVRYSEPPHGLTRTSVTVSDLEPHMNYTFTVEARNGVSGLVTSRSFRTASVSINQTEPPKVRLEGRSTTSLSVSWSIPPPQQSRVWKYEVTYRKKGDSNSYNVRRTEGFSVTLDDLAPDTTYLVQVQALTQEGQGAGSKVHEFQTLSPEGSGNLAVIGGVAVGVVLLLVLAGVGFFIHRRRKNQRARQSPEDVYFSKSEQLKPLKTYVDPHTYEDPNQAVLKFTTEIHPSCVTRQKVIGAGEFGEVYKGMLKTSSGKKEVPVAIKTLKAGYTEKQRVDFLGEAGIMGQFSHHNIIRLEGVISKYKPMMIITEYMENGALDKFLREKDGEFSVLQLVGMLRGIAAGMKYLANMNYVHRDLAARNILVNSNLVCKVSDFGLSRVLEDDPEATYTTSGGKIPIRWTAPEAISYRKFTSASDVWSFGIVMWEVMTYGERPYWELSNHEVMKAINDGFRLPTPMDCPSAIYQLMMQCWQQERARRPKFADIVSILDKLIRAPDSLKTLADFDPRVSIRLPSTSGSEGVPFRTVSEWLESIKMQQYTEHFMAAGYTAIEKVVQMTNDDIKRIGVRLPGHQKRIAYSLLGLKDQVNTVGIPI
Excerpt: as §2

ASK2 = molecular target: T29, ASK2 (Homo sapiens, UniProt O95382); experiment: KINOMEscan 1 μM, ASK2; assay type: binding; conditions: 1000 nM; Entrez MAP3K6; read-out: Percent Control
T29 construct: purchased Eurofins DiscoverX KINOMEscan
T29 sequence (O95382 whole entry): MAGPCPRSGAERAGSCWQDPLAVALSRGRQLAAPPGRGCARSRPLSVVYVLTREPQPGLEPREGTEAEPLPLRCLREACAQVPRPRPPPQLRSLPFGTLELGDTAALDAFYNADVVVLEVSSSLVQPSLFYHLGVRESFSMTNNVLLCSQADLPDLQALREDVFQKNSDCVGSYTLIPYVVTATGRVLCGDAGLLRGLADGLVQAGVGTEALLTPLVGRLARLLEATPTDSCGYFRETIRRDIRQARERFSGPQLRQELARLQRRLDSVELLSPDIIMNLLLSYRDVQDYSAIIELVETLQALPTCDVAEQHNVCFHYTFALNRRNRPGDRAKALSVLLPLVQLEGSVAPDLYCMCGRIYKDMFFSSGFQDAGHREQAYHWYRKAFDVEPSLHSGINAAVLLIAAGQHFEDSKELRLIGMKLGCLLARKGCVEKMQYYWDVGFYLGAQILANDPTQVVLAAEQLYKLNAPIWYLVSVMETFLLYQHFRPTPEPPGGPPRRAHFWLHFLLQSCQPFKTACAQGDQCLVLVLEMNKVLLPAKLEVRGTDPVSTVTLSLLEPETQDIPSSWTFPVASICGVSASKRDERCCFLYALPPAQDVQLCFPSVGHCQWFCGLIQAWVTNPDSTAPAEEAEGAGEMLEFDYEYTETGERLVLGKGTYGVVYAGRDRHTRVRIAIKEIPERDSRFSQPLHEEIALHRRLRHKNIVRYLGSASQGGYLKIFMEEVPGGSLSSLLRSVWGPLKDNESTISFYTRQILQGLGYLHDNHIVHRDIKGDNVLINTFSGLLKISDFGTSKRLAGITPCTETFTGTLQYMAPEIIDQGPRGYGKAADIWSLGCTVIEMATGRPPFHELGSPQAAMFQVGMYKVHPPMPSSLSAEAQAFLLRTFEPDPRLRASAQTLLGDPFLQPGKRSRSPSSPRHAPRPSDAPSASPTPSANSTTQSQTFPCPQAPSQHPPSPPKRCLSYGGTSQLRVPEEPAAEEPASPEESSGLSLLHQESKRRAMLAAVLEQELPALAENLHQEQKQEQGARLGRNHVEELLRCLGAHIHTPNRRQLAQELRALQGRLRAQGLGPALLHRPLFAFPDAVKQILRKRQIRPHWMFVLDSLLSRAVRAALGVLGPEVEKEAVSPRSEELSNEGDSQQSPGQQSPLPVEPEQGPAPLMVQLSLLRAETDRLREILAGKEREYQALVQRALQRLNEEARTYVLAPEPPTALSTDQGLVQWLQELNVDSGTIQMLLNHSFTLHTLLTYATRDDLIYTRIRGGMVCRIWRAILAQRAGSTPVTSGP
Excerpt: as §2

TAOK3 = molecular target: T30, TAOK3 (Homo sapiens, UniProt Q9H2K8); experiment: KINOMEscan 1 μM, TAOK3; assay type: binding; conditions: 1000 nM; Entrez TAOK3; read-out: Percent Control
T30 construct: purchased Eurofins DiscoverX KINOMEscan
Excerpt: as §2

DYRK1A = molecular target: T31, DYRK1A (Homo sapiens, UniProt Q13627); experiment: KINOMEscan 1 μM, DYRK1A; assay type: binding; conditions: 1000 nM; Entrez DYRK1A; read-out: Percent Control
T31 construct: purchased Eurofins DiscoverX KINOMEscan
Excerpt: as §2

HUNK = molecular target: T32, HUNK (Homo sapiens, UniProt P57058); experiment: KINOMEscan 1 μM, HUNK; assay type: binding; conditions: 1000 nM; Entrez HUNK; read-out: Percent Control
T32 construct: purchased Eurofins DiscoverX KINOMEscan
Excerpt: as §2

FYN = molecular target: T33, FYN (Homo sapiens, UniProt P06241); experiment: KINOMEscan 1 μM, FYN; assay type: binding; conditions: 1000 nM; Entrez FYN; read-out: Percent Control
T33 construct: purchased Eurofins DiscoverX KINOMEscan
T33 sequence (P06241 whole entry): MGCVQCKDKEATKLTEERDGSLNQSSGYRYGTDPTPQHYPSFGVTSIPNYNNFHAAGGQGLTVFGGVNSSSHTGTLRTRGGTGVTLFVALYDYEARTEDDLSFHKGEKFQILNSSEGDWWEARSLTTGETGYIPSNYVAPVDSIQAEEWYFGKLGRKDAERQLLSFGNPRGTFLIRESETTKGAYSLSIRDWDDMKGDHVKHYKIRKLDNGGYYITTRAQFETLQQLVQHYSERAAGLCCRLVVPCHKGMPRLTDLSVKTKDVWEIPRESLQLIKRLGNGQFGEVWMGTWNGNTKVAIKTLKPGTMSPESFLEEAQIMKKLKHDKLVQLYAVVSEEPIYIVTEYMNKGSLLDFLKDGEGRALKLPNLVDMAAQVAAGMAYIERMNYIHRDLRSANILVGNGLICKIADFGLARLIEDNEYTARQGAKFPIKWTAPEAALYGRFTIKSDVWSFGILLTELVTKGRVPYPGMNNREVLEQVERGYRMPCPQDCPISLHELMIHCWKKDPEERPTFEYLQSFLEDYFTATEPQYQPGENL
Excerpt: as §2

## O=C(O)c1ccc(-c2coc3ncc(-c4ccccc4)cc23)cc1Cl [SGC-CAMKK2-1N (UNC-YL-83)]
TAOK2
  remaining binding at 1 µM: 78%
GRK1
  remaining binding at 1 µM: 92%
CDK11
  remaining binding at 1 µM: 56%
NEK11
  remaining binding at 1 µM: 62%
[1]
  remaining binding at 1 µM: 83%
MAK
  remaining binding at 1 µM: 83%
MLK2
  remaining binding at 1 µM: 100%
[2]
  remaining binding at 1 µM: 61%
ERK1
  remaining binding at 1 µM: 95%
ACVR2A
  remaining binding at 1 µM: 72%
MST2
  remaining binding at 1 µM: 79%
NEK5
  remaining binding at 1 µM: 93%
WNK2
  remaining binding at 1 µM: 58%
EPHB4
  remaining binding at 1 µM: 56%
KIT(D816H)
  remaining binding at 1 µM: 57%

## Cc1cccc(-c2cnc3occ(-c4ccc(C(=O)O)c(C5CCCC5)c4)c3c2)c1 [SGC-CAMKK2-1 (YL-36)]
PFCDPK1(P.falciparum)
  remaining binding at 1 µM: 100%
BIKE
  remaining binding at 1 µM: 100%
MTOR
  remaining binding at 1 µM: 98%
PAK6
  remaining binding at 1 µM: 67%
PLK1
  remaining binding at 1 µM: 100%
SRC
  remaining binding at 1 µM: 96%
DCAMKL2
  remaining binding at 1 µM: 94%
TEC
  remaining binding at 1 µM: 95%
CAMK2B
  remaining binding at 1 µM: 86%
BRAF(V600E)
  remaining binding at 1 µM: 100%
WEE1
  remaining binding at 1 µM: 82%
PRKD3
  remaining binding at 1 µM: 77%
EPHA2
  remaining binding at 1 µM: 100%
ASK2
  remaining binding at 1 µM: 96%
TAOK3
  remaining binding at 1 µM: 97%
DYRK1A
  remaining binding at 1 µM: 100%
HUNK
  remaining binding at 1 µM: 94%
FYN
  remaining binding at 1 µM: 86%
